# Measurements as given in the kinase profiling compilation of Christmann-Franck et al. (2016).
# Key:
# Assay in all cases: radiometric filter-binding kinase assay, Kinase HotSpot
# Conditions in all cases: compound 0.5 µM; ATP 10 µM
# CDK1 CCNB1 (human) = CDK1 CCNB1 (human) (UniProt P06493+P14635)
# ZAP70 (human) = ZAP70 (human) (UniProt P43403)
# PAK1 (human) = PAK1 (human) (UniProt Q13153)
# WEE1 (human) = WEE1 (human) (UniProt P30291)
# MST1R (human) = MST1R (human) (UniProt Q04912)
# BTK (human) = BTK (human) (UniProt Q06187)
# CHEK1 (human) = CHEK1 (human) (UniProt O14757)
# STK24 (human) = STK24 (human) (UniProt Q9Y6E0)
# PIM3 (human) = PIM3 (human) (UniProt Q86V86)
# HIPK1 (human) = HIPK1 (human) (UniProt Q86Z02)
# EPHA7 (human) = EPHA7 (human) (UniProt Q15375)
# RPS6KA5 KD2 (human) = RPS6KA5 KD2 (human) (UniProt O75582)
# AKT1 (human) = AKT1 (human) (UniProt P31749)
# CAMKK1 (human) = CAMKK1 (human) (UniProt Q8N5S9)
# PTK6 (human) = PTK6 (human) (UniProt Q13882)
# FGFR4 (human) = FGFR4 (human) (UniProt P22455)
# OXSR1 (human) = OXSR1 (human) (UniProt O95747)
# PRKD3 (human) = PRKD3 (human) (UniProt O94806)
# CLK4 (human) = CLK4 (human) (UniProt Q9HAZ1)
# MAPK1 (human) = MAPK1 (human) (UniProt P28482)
# DSTYK (human) = DSTYK (human) (UniProt Q6XUX3)
# ACVR1 (human) = ACVR1 (human) (UniProt Q04771)
# NEK7 (human) = NEK7 (human) (UniProt Q8TDX7)
# EPHA4 (human) = EPHA4 (human) (UniProt P54764)
# ROS1 (human) = ROS1 (human) (UniProt P08922)
# MAP4K2 (human) = MAP4K2 (human) (UniProt Q12851)
# CSNK2A1 (human) = CSNK2A1 (human) (UniProt P68400)
# MAP3K5 (human) = MAP3K5 (human) (UniProt Q99683)
# KDR (human) = KDR (human) (UniProt P35968)
# JAK3 JH1 JH2 (human) = JAK3 JH1 JH2 (human) (UniProt P52333)
# MAPKAPK2 (human) = MAPKAPK2 (human) (UniProt P49137)
# TAOK3 (human) = TAOK3 (human) (UniProt Q9H2K8)
# FGFR2 (human) = FGFR2 (human) (UniProt P21802)
# HIPK4 (human) = HIPK4 (human) (UniProt Q8NE63)
# TEK (human) = TEK (human) (UniProt Q02763)
# ROCK2 (human) = ROCK2 (human) (UniProt O75116)
# PDPK1 (human) = PDPK1 (human) (UniProt O15530)
# TAOK2 (human) = TAOK2 (human) (UniProt Q9UL54)
# ULK1 (human) = ULK1 (human) (UniProt O75385)
# NEK4 (human) = NEK4 (human) (UniProt P51957)
# STK3 (human) = STK3 (human) (UniProt Q13188)
# IKBKB (human) = IKBKB (human) (UniProt O14920)
# Sequence of CDK1 CCNB1 (human) (P06493 whole entry, looked up): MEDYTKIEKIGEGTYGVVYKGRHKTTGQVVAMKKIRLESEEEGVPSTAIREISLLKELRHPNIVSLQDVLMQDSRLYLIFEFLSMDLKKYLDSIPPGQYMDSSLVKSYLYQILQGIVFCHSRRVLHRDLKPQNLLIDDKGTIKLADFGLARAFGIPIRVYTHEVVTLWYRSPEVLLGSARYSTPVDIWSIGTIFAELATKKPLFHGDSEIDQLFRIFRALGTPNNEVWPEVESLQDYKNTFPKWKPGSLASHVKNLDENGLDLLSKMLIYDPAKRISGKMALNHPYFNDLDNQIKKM
# Sequence of CDK1 CCNB1 (human) (P14635 whole entry, looked up): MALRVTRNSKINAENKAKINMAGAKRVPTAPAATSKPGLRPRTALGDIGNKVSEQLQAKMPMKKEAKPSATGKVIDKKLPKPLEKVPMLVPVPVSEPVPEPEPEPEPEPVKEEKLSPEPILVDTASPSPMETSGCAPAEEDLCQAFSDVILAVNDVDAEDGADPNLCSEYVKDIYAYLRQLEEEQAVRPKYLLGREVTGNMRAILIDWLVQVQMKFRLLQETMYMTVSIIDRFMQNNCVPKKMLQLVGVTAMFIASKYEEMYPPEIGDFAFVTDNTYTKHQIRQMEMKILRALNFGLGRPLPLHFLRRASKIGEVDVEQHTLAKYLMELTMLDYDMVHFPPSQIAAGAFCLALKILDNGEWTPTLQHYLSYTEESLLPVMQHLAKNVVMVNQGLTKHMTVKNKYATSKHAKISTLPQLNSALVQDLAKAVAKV
# Sequence of CAMKK1 (human) (Q8N5S9 whole entry, looked up): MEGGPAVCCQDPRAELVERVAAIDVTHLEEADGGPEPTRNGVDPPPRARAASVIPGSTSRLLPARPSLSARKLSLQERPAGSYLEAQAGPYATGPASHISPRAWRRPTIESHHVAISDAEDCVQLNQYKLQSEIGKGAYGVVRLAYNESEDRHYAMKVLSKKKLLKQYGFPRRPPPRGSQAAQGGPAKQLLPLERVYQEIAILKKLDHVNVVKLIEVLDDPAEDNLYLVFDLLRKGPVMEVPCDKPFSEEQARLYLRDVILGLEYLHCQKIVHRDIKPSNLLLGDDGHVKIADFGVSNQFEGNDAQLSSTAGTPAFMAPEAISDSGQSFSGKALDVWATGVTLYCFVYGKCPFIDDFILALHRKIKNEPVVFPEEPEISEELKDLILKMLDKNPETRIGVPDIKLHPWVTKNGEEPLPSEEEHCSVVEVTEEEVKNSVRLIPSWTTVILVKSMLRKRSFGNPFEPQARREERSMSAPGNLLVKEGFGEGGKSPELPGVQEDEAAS
# Sequence of HIPK1 (human) (Q86Z02 whole entry, looked up): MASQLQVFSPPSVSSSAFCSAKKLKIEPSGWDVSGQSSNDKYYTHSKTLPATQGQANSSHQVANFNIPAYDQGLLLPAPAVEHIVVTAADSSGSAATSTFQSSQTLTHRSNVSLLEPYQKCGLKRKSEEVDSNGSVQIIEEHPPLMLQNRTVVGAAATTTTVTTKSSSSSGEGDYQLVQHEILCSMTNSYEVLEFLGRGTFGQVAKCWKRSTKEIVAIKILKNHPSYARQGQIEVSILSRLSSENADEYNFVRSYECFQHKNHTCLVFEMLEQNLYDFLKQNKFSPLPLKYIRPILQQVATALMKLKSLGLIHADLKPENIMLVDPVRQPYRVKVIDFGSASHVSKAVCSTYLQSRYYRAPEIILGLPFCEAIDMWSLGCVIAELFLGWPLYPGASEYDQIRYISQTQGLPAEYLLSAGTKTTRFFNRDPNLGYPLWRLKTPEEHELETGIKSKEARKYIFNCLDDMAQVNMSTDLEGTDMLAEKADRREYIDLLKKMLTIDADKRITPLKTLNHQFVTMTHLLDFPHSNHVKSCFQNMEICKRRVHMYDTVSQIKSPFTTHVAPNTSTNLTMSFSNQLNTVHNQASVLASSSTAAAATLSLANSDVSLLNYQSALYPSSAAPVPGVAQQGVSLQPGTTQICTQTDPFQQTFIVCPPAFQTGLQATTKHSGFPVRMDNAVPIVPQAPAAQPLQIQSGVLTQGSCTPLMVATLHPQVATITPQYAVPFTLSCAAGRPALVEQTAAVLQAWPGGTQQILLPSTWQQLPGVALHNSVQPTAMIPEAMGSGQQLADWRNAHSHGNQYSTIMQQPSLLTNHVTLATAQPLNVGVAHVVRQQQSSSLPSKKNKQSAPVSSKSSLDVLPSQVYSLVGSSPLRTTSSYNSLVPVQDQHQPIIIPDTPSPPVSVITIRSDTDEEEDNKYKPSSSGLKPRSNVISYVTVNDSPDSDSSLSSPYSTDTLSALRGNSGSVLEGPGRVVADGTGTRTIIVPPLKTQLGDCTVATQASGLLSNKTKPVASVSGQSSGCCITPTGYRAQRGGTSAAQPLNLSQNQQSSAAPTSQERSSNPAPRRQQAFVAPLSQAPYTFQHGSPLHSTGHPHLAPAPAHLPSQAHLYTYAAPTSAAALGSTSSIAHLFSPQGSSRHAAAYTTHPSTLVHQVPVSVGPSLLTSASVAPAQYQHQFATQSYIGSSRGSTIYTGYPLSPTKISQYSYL
# Sequence of ACVR1 (human) (Q04771 whole entry, looked up): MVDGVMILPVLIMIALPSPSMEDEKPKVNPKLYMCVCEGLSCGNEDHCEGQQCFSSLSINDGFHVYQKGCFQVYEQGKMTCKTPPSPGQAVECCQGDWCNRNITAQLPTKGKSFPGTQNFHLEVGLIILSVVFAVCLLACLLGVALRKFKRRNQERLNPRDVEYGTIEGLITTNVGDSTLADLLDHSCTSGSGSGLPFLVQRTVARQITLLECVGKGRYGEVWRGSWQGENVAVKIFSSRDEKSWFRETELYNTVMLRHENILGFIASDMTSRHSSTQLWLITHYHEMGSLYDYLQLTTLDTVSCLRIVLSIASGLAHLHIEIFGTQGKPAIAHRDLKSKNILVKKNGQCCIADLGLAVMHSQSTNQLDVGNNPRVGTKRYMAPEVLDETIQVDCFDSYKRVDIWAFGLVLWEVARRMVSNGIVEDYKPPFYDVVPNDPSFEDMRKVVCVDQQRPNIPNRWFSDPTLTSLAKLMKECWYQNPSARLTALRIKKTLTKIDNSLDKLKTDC
# Sequence of STK24 (human) (Q9Y6E0 whole entry, looked up): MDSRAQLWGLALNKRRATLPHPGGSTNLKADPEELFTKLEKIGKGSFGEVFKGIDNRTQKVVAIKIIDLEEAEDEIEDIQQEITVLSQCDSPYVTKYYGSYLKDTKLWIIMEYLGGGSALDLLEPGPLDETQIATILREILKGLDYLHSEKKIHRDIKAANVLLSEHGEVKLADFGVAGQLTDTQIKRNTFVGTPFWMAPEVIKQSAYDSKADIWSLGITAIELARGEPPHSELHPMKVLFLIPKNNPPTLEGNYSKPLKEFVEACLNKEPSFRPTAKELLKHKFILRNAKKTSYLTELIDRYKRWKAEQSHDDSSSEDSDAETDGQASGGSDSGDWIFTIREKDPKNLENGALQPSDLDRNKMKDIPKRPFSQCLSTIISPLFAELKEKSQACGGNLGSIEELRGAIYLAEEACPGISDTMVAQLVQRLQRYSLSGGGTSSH
# Sequence of FGFR4 (human) (P22455 whole entry, looked up): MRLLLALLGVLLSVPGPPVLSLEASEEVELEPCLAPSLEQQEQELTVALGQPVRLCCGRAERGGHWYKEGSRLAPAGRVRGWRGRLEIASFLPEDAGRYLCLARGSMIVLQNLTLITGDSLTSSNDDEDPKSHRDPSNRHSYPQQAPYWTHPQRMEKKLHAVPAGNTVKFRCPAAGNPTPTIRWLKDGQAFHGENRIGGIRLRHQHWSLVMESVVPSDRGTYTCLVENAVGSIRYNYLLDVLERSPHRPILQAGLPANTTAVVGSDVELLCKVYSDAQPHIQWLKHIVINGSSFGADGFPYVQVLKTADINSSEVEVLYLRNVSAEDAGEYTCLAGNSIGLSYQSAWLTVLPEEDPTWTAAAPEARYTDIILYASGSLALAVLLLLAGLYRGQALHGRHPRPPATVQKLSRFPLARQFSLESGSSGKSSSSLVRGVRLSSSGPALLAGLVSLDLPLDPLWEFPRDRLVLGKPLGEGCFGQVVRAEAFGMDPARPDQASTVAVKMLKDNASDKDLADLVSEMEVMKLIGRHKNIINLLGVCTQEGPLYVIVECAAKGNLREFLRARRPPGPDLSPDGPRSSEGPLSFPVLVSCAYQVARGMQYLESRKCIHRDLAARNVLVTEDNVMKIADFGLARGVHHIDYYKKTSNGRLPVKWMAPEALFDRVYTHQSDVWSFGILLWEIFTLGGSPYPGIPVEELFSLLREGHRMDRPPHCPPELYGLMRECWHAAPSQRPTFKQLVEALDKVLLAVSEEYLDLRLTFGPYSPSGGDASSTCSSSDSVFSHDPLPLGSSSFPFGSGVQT
# Sequence of MAP4K2 (human) (Q12851 whole entry, looked up): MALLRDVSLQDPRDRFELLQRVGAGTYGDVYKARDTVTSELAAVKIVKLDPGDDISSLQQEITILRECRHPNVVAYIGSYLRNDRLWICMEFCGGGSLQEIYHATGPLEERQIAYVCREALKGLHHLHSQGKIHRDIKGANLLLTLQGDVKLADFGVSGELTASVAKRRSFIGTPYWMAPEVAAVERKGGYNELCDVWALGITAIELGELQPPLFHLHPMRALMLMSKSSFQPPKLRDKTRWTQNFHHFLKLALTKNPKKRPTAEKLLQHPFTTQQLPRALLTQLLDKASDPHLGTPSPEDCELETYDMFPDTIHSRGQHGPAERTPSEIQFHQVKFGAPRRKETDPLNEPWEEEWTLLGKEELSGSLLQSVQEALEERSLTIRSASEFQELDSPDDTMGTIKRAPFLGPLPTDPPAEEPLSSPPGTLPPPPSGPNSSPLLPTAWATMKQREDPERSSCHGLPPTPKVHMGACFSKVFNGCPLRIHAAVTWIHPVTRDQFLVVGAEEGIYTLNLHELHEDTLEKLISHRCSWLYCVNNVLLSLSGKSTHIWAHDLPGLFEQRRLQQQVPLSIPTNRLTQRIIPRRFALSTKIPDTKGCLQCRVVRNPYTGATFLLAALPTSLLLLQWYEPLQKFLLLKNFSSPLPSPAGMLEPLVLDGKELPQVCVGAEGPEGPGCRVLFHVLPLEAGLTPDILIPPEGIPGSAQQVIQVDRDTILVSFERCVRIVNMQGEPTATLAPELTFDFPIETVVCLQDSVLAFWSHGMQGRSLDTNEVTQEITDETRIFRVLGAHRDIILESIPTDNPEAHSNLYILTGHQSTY
structure (smiles),measurement,setting,value
CSc1nc(-c2ccc(F)cc2)c(-c2ccnc(NC(C)c3ccccc3)c2)[nH]1 (configuration not stated),residual activity,CDK1 CCNB1 (human),106%
same,residual activity,ZAP70 (human),102%
same,residual activity,PAK1 (human),97.7%
same,residual activity,WEE1 (human),76.1%
same,residual activity,MST1R (human),81.3%
same,residual activity,BTK (human),76.6%
same,residual activity,CHEK1 (human),101%
same,residual activity,STK24 (human),113%
same,residual activity,PIM3 (human),95.5%
same,residual activity,HIPK1 (human),110%
same,residual activity,EPHA7 (human),102%
same,residual activity,RPS6KA5 KD2 (human),97.3%
same,residual activity,AKT1 (human),101%
same,residual activity,CAMKK1 (human),104%
same,residual activity,PTK6 (human),96.8%
same,residual activity,FGFR4 (human),102%
same,residual activity,OXSR1 (human),88.2%
same,residual activity,PRKD3 (human),82%
same,residual activity,CLK4 (human),79.2%
same,residual activity,MAPK1 (human),102%
same,residual activity,DSTYK (human),102%
same,residual activity,ACVR1 (human),89.3%
same,residual activity,NEK7 (human),89.6%
same,residual activity,EPHA4 (human),93.1%
same,residual activity,ROS1 (human),99.1%
same,residual activity,MAP4K2 (human),82.5%
same,residual activity,CSNK2A1 (human),100%
same,residual activity,MAP3K5 (human),106%
same,residual activity,KDR (human),83.5%
same,residual activity,JAK3 JH1 JH2 (human),98.5%
same,residual activity,MAPKAPK2 (human),106%
same,residual activity,TAOK3 (human),91.7%
same,residual activity,FGFR2 (human),95.2%
same,residual activity,HIPK4 (human),95.2%
same,residual activity,TEK (human),90.5%
same,residual activity,ROCK2 (human),95.3%
same,residual activity,PDPK1 (human),91.3%
same,residual activity,TAOK2 (human),92.7%
same,residual activity,ULK1 (human),110%
same,residual activity,NEK4 (human),102%
same,residual activity,STK3 (human),88.8%
CCN1/C(=C/C(C)=O)Sc2ccc(OC)cc21,residual activity,CDK1 CCNB1 (human),93.2%
same,residual activity,ZAP70 (human),103%
same,residual activity,PAK1 (human),92.9%
same,residual activity,WEE1 (human),102%
same,residual activity,MST1R (human),94.5%
same,residual activity,IKBKB (human),102%
same,residual activity,BTK (human),101%
same,residual activity,CHEK1 (human),87.9%
same,residual activity,STK24 (human),82.2%
same,residual activity,PIM3 (human),47.4%
same,residual activity,HIPK1 (human),95%
same,residual activity,EPHA7 (human),95.8%
same,residual activity,RPS6KA5 KD2 (human),87.4%
same,residual activity,AKT1 (human),90.1%
same,residual activity,CAMKK1 (human),105%
same,residual activity,PTK6 (human),85.3%
same,residual activity,FGFR4 (human),92.3%
same,residual activity,OXSR1 (human),93.5%
same,residual activity,PRKD3 (human),62.5%
same,residual activity,CLK4 (human),18.5%
same,residual activity,MAPK1 (human),97.1%
same,residual activity,DSTYK (human),90.6%
same,residual activity,ACVR1 (human),88.1%
same,residual activity,EPHA4 (human),95.5%
same,residual activity,ROS1 (human),113%
same,residual activity,MAP4K2 (human),105%
same,residual activity,CSNK2A1 (human),98.1%
same,residual activity,MAP3K5 (human),118%
same,residual activity,KDR (human),104%
same,residual activity,JAK3 JH1 JH2 (human),103%
same,residual activity,MAPKAPK2 (human),94.6%
same,residual activity,TAOK3 (human),95.6%
same,residual activity,FGFR2 (human),97.1%
same,residual activity,HIPK4 (human),94%
same,residual activity,TEK (human),102%
same,residual activity,ROCK2 (human),90.7%
same,residual activity,PDPK1 (human),97.5%
same,residual activity,TAOK2 (human),101%
same,residual activity,ULK1 (human),115%
same,residual activity,NEK4 (human),92.8%
Nc1nc(Nc2ccc(S(N)(=O)=O)cc2)nn1C(=S)Nc1c(F)cccc1F,residual activity,CDK1 CCNB1 (human),-1.78%
same,residual activity,ZAP70 (human),86.9%
same,residual activity,PAK1 (human),29%
same,residual activity,WEE1 (human),100%
same,residual activity,MST1R (human),56%
same,residual activity,IKBKB (human),49.3%
same,residual activity,BTK (human),84.1%
same,residual activity,STK24 (human),2.88%
same,residual activity,PIM3 (human),89.1%
same,residual activity,HIPK1 (human),105%
same,residual activity,EPHA7 (human),14.2%
same,residual activity,RPS6KA5 KD2 (human),68.1%
same,residual activity,AKT1 (human),103%
same,residual activity,CAMKK1 (human),36%
same,residual activity,PTK6 (human),34.8%
same,residual activity,FGFR4 (human),32.2%
same,residual activity,OXSR1 (human),67.6%
same,residual activity,PRKD3 (human),7.37%
same,residual activity,CLK4 (human),1.92%
same,residual activity,MAPK1 (human),76.2%
same,residual activity,DSTYK (human),17.8%
same,residual activity,ACVR1 (human),60.4%
same,residual activity,NEK7 (human),82.6%
same,residual activity,EPHA4 (human),54.8%
same,residual activity,ROS1 (human),1.68%
same,residual activity,MAP4K2 (human),2.13%
same,residual activity,CSNK2A1 (human),76.6%
same,residual activity,MAP3K5 (human),1.12%
same,residual activity,KDR (human),6.55%
same,residual activity,JAK3 JH1 JH2 (human),5.21%
same,residual activity,MAPKAPK2 (human),91.1%
same,residual activity,TAOK3 (human),10%
same,residual activity,FGFR2 (human),7.43%
same,residual activity,HIPK4 (human),50.6%
same,residual activity,TEK (human),5.06%
same,residual activity,ROCK2 (human),6.22%
same,residual activity,PDPK1 (human),19.3%
same,residual activity,TAOK2 (human),11.5%
same,residual activity,ULK1 (human),5.03%
same,residual activity,NEK4 (human),60.5%
same,residual activity,STK3 (human),1.33%
